Measured values published in patent publication US20150238483A1, “Traitement des neuronopathies motrices” (CENTRE NATIONAL DE LA RECHERCHE SCIENTIFIQUE- CNRS, priority 2012, published 2015).
Where a name gives a salt, the structure may show the parent alone. Read-outs that look alike come from different tables or passages of the source.

How the values were obtained:
[1] = test system: immortalized SMA fibroblasts; test: Distribution of the SMN protein to Cajal bodies (CBs) in immortalized SMA fibroblasts, immunolabeling, cells counted; format: cell-based, human; conditions: for induction factor of cells with SMN protein in CBs (DMSO = 1): 24 hours of treatment at 2 micrograms/ml, immortalized SMA fibroblasts; for Maximum induction: at 2 μg/ml, DMSO = 1; for Maximum induction / Dilution at EC50: immortalized type I line; for Dilution at EC50: dilution relative to 2 μg/ml
Protocol: This immortalization is described in the publication Lefebvre S, Burlet P, Viollet L, Bertrandy S, Huber C, Belser C and Munnich A. A novel association of the SMN protein with major non-ribosomal nucleolar proteins and its implication in spinal muscular atrophy. Hum Mol Genet (2002) 11 (9): 1017-1027.
The blockers of the invention are commercially available (for example from Sigma-Aldrich) and are sold in 96-well plates, at 2 milligrams per molecule per well to be dissolved in 1 ml of DMSO.
In order to determine whether the calcium channel blockers exerted a positive effect, the inventors counted the cells which had the SMN protein located in the CBs out of 100 cells randomly selected for each experiment.
This experiment was repeated three times.
A value of induction by a factor equal to 1 was arbitrarily assigned to DMSO.
In order to evaluate the relationship between the concentration (dose) and the effect (response) on the CBs of the immortalized SMA cells, the inventors constructed a dose-response curve for each of the molecules.

[2] = humans, cited from earlier work; for maximum plasma level: oral, 10 mg per day
immortalized SMA cells = test: Co-immunolabeling of coilin and TMG cap: snRNPs at the level of CBs in immortalized SMA cells; format: cell-based, human; conditions: 24 hours of treatment; chi-2, 0.001<p<0.01; n=300 cells
Protocol: Co-immunolabeling experiments similar to the previous ones were carried out on the immortalized SMA cells using two commercial antibodies, one specific for the coilin protein (CBs marker) and the other for the trimethylguanosine (TMG) cap of the small nuclear RNAs of snRNPs.
These tests show an increase in the SMN protein and in the snRNPs in Cajal bodies in the immortalized SMA line from the severe form of the disease (type I), induced by the calcium channel blockers of the invention. The mean value for the snRNPs is calculated from the three experiments (n=300 cells).

[3] = test system: amyotrophic lateral sclerosis; conditions: ALS patients; cited from earlier work

Structure (SMILES)	induction factor of cells with SMN protein in CBs (DMSO = 1) [1]	Maximum induction [1]	Dilution at EC50 [1]	further results
CCCCc1oc2ccccc2c1C(=O)c1cc(I)c(OCCN(CC)CC)c(I)c1 [Amiodarone hydrochloride, (2-butyl-3-benzofuranyl)[4-[2-(diethylamino)ethoxy]-3,5-diiodophenyl]methanone hydrochloride]	approximately 2.8	2.8 ± 1.0	–	–
Fc1ccc(C(c2ccc(F)cc2)N2CCN(C/C=C/c3ccccc3)CC2)cc1 [Flunarizine dihydrochloride, flunarizine dihydrochloride]	approximately 4.8	4.8 ± 1.5	1/53	maximum plasma level [2]: approximately 81±16 nanograms/ml; maximum plasma level ([2]; converted from ng/ml): approximately 170±34 nM; elimination half-life [2]: long; snRNPs at the level of the CBs (immortalized SMA cells): significant increase; induction factor of SMN protein distribution to CBs (DMSO = 1) ([1]; compounds diluted to 1/1000 compared with examples 1 and 2, FIG. 1): 1.2
NCC1(CC(=O)O)CCCCC1 [Gabapentin, 2-[1-(aminomethyl)cyclohexyl]acetic acid]	approximately 3.3	4.4 ± 1.0	1/55	EC50 ([1]; Homo sapiens, Fibroblast): 210 ± 38 nM
Nc1nc2ccc(OC(F)(F)F)cc2s1 [Riluzole]	–	–	–	improvement of patient prognosis [3]: 30%
CC(C)C[C@H](CN)CC(=O)O [pregabalin]	1.7	–	–	–
